Experimental data reported in US20250017910A1, “2-Thioxothiazolidine-4-One Derivatives And Their Uses” (Prosetta Biosciences, Inc., priority 2023, published 2025).

Biological target: T1, alpha syn aggregates (Homo sapiens, UniProt P37840)
T1 construct: expressed in transfected cells; host or cells: NLF cells, Tet-on inducible expression
Assay: Assay for Methamphetamine Addiction: alpha syn aggregates in NLF cells with or without amphetamine
Type: cell-based
Details: FIG. 1
From the text: FIG. 1 illustrates the average number of a syn aggregates per cell.
NLF cells were transfected with alpha synuclein behind a Tet-on promoter and induced to express alpha syn, resulting in the appearance of alpha syn aggregates. […] Aggregates were counted in ten randomly chosen fields and highest 3 in all conditions were quantified.

| Structure (SMILES) | amphetamine mediated increase of alpha syn aggregates (0.5 mM amphetamine and 1 μM of compound) | number of alpha syn aggregates (treatment with 1 μM of compound) | number of alpha syn aggregates (treatment with 0.5 mM amphetamine) |
| --- | --- | --- | --- |
| CN1CCN(c2ccc(-c3ccc(/C=C4\SC(=S)N(CCc5ccccc5)C4=O)o3)cc2)CC1 [Compound 13] | eliminated the amphetamine mediated increase of aggregates | reduced the number of aggregates | – |
| CC(N)Cc1ccccc1 (stereo not drawn) [amphetamine, reference compound] | – | – | increased the number of aggregates |
